For two compounds, chromatographic logP and Efficacy results are on record in patent US10244756B2, “Fungicidal N-cycloalkyl-N-{[ortho-(1-substituted-cycloalkyl)heteroaryl]methyl}(thio)carboxamides” (Bayer CropScience Aktiengesellschaft, priority 2015, dated 2019).

Data set [1] in a line: logP by HPLC on reversed-phase column (C 18), EEC Directive 79/831 Annex V.A8. As to conditions: reversed-phase HPLC column (C 18), 40° C., 0.1% aqueous formic acid and acetonitrile, gradient 10% to 90% acetonitrile. Type of data set: physicochemical. The protocol:
In table 1, the logP values were determined in accordance with EEC Directive 79/831 Annex V.A8 by HPLC (High Performance Liquid Chromatography) on a reversed-phase column (C 18), using the method described below: Temperature: 40° C.; Mobile phases: 0.1% aqueous formic acid and acetonitrile; linear gradient from 10% acetonitrile to 90% acetonitrile. Calibration was carried out using unbranched alkan-2-ones (comprising 3 to 16 carbon atoms) with known logP values (determination of the logP values by the retention times using linear interpolation between two successive alkanones). lambda-max-values were determined using UV-spectra from 200 nm to 400 nm and the peak values of the chromatographic signals.

Data set [2] deals with Puccinia recondita. Nature of the data set: In vivo preventive test on Puccinia recondita (brown rust on wheat). As to conditions: Table A2, dose 100 ppm, evaluated 11 days after inoculation. The protocol: (§1) Example A: In Vivo Preventive Test on Puccinia Recondita (Brown Rust on Wheat) Solvent: 5% by volume of Dimethyl sulfoxide • 10% by volume of Acetone Emulsifier: 1 μL of Tween® 80 per mg of active ingredient The active ingredients are made soluble and homogenized in a mixture of Dimethyl sulfoxide/Acetone/Tween® 80 and then diluted in water to the desired concentration. The young plants of wheat are treated by spraying the active ingredient prepared as described above. Control plants are treated only with an aqueous solution of Acetone/Dimethyl sulfoxide/Tween® 80. After 24 hours, the plants are contaminated by spraying the leaves with an aqueous suspension of Puccinia recondita spores. The contaminated wheat plants are incubated for 24 hours at 20° C. and at 100% relative humidity and then for 10 days at 20° C. and at 70-80% relative humidity. The test is evaluated 11 days after the inoculation. 0% means an efficacy which corresponds to that of the control plants while an efficacy of 100% means that no disease is observed.

In data set [3] the test system is Uromyces appendiculatus. Nature of the data set: In vivo preventive test on Uromyces appendiculatus (bean rust). To be noted: Table B2, dose 100 ppm, evaluated 11 days after inoculation. The protocol: as §1, with “B:” for “A:”, “Uromyces Appendiculatus (Bean Rust)” for “Puccinia Recondita (Brown Rust on Wheat)”, “bean” for “wheat”, “Uromyces appendiculatus” for “Puccinia recondita”

As to `Cc1cc(C2(Cl)CC2)c(CN(C(=O)c2cn(C)nc2C(F)F)C2CC2)s1` [Example I.05, N-{[3-(1-chlorocyclopropyl)-5-methyl-2-thienyl]methyl}-N-cyclopropyl-3-(difluoromethyl)-1-methyl-1H-pyrazole-4-carboxamide], the chromatographic logP in data set [1] is 3.39.

Turning to `CC(C)c1ncc(Cl)cc1CN(C(=O)c1cn(C)nc1C(F)F)C1CC1` [CMP1, N-[(5-chloro-2-isopropylpyridin-3-yl)methyl]-N-cyclopropyl-3-(difluoromethyl)-1-methyl-1H-pyrazole-4-carboxamide], the Efficacy in data set [2] and in data set [3] was 0% throughout.

A word on the chromatographic logP: it is a lipophilicity value derived from retention on a column.
